Test results from patent US20070259903A1 (priority 2006, published 2007).
In brackets after ≈: the same amount, converted by molar mass. Read-outs that look alike come from different tables or passages of the source.

Key:
[1] = system: Influenza A/New Caledonia/20/99 (H1N1); experiment: ETOH vs DMSO comparison: compound + virus 1 h at room temperature, on indicator cells 1 hour then removed, neutral red; type: cell-based, influenza A virus; conditions: exposed to c1 + virus for 1 hour
Flu B Shanghai virus = experiment: Virucidal activity: virus pre-incubated with compound 1 h, applied to MDCK cells 1 h, removed, CPE after 6 days; type: cell-based, influenza B virus
Description: For each test, a stock solution of the lead Compound C1 was made by first dissolving it in a small amount (50-100 microliters) of absolute ethanol (ETOH) followed by addition of growth nutrient medium to a final volume of 1 ml to bring the stock concentration of 20 mg/ml. It was tested at a concentration of 100 μg/ml, with half-log dilutions down to 0.032 μg/ml.
The compound C1 and the virus being tested were incubated together at 8 different concentrations for 1 hour at 37° C. Then virus/compound mixture applied to established cultured MDCK (Madin-Darby canine kidney) cells for 1 hour at 37° C. After 1 hour, the Virus/compound were removed, and replaced with new virus/compound free medium, and the indicator cells were further incubated for 6 days. Virus that survived the one hour pre-incubation and one hour exposure to indicator cells caused cytopathic effect (CPE) development. Results were evaluated by microscopic inspection (visual) as well as a spectrophotometic Neutral Red Dye Assay. The values shown represent the concentration (μg/ml) of C1 that caused a 50% virucidal effect (EC50). […]
The EC50 values were calculated by extrapolation from a plot of concentration versus virucidal activity data on semi-log paper. This allowed us to quantify complete virus killing of a small amount of virus (about 50-100 cell culture infectious doses).

SARS (urbani) = type: cell-based, Severe Acute Respiratory Syndrome (SARS) virus
Flu B Shanghai/361/02 = type: cell-based, influenza B virus; conditions: MDCK cells, continuous exposure
Description: (§1) The antiviral activity of barbituric acid analogs was also evaluated under conditions where the indicator cells to which virus had been previously added and then continuously exposed to different concentrations of C1 for the duration of the experiments. Eight different doses of C1 ranging from 100 μg/ml to half-log dilutions down to 0.032 μg/ml were added to the indicator cells after adding the indicated virus. This virus-cell combination was continuously exposed to C1 until untreated control wells developed a cytopathic effect (CPE) usually after 4 to 6 days of incubation at 37° C. At the end of incubation period at 37° C., the resulting cytopathic effect (CPE) in control and test wells was assessed by visual and a Neutral Red Dye assay.
(§2) Results of CPE versus concentration of C1 were plotted on a semi-log paper and the dose of C1 that caused a 50% inhibition of virus mediated CPE (EC50) was calculated.

[2] = system: Influenza A/California/7/04 (H3N2); experiment: ETOH vs DMSO comparison: compound + virus 1 h at room temperature, on indicator cells 1 hour then removed, neutral red; type: cell-based, influenza A virus; conditions: exposed to c1 + virus for 1 hour
[3] = system: Flu A (H5N1) Vietnam/1203/2004 H; type: cell-based, influenza A virus; conditions: MDCK cells, continuous exposure
Flu A (H3N2) = experiment: Virucidal activity: virus pre-incubated with compound, applied to MDCK cells 1 h, removed, CPE after 6 days; type: cell-based, influenza A virus
RSV A A2 = type: cell-based, Respiratory Synsycitial virus; conditions: MA-104 cells, continuous exposure
Description: as §1, §2

Rhinovirus HGP = type: cell-based; conditions: HeLa Ohio-1 cells, continuous exposure
Description: as §1, §2

Measles Chicago = type: cell-based; conditions: CV-1 cells, continuous exposure
Description: as §1, §2

PIV 14702 = type: cell-based, Parainfluenza virus; conditions: MA-104 cells, continuous exposure
Description: as §1, §2

[4] = system: Influenza A/New Caledonia/20/99 (H1N1); experiment: ETOH vs DMSO comparison: compound + virus 1 h at room temperature, then left on indicator cells 3 days, neutral red; type: cell-based, influenza A virus; conditions: exposed to c1 + virus for 3 days
Flu A (H5N1) = type: cell-based, influenza A virus; conditions: virus treated one hour
[5] = system: Influenza A/California/7/04 (H3N2); experiment: ETOH vs DMSO comparison: compound + virus 1 h at room temperature, then left on indicator cells 3 days, neutral red; type: cell-based, influenza A virus; conditions: exposed to c1 + virus for 3 days

SMILES: CCCCN1C(=O)CC(=O)N(CCCC)C1=S [Compound C1, 4,6(1H, 5H)-Pyrimidinedione, 1,3-dibutyldihydro-2-thioxo]
- Increase virucidal activity of C1 in DMSO ([1]; DMSO versus ETOH): 140%
- EC50 of C1 in DMSO ([1]; dissolved in DMSO, neutral red): 30.0 µg/mL
- EC50 of C1 in ETOH ([1]; dissolved in ETOH, neutral red): 42.0 µg/mL
- dose causing 50% inactivation of the virus (Flu B Shanghai virus; Neutral red dye assay): 37 µg/mL
- dose causing 50% inactivation of the virus (Flu B Shanghai virus; visual method): 42 µg/mL
- dose causing 50% inactivation of the virus (SARS (urbani); Neutral Red dye assay): 53 µg/mL
- dose causing 50% inactivation of the virus (SARS (urbani); visual method): 12 µg/mL
- EC50 (Flu B Shanghai/361/02; Neutral Red): 3 µg/mL
- EC50 (Flu B Shanghai/361/02; Visual): 3 µg/mL
- Increase virucidal activity of C1 in DMSO ([2]; DMSO versus ETOH): 220%
- EC50 of C1 in DMSO ([2]; dissolved in DMSO, neutral red): 20.0 µg/mL
- EC50 of C1 in ETOH ([2]; dissolved in ETOH, neutral red): 42.0 µg/mL
- EC50 ([3]; Neutral Red): 3 µg/mL (≈ 11.7 µM)
- EC50 ([3]; Visual): 3 µg/mL (≈ 11.7 µM)
- inactivation of the virus by treatment (Flu A (H3N2); FIG. 2): virtually complete inactivation
- dose that caused a 50% inactivation (EC50) (Flu A (H3N2); visual method, virus treated for 4 hours (so in the source), MDCK indicator cells): 5.5 µg/mL
- EC50 (RSV A A2; Neutral Red): 30 µg/mL
- EC50 (RSV A A2; Visual): 30 µg/mL
- EC50 (Rhinovirus HGP; Neutral Red): 30 µg/mL
- EC50 (Rhinovirus HGP; Visual): 30 µg/mL
- EC50 (Measles Chicago; Neutral Red): 40 µg/mL
- EC50 (Measles Chicago; Visual): 30 µg/mL
- EC50 (PIV 14702; Neutral Red): 30 µg/mL
- EC50 (PIV 14702; Visual): 30 µg/mL
- Increase virucidal activity of C1 in DMSO ([4]; DMSO versus ETOH): 200%
- EC50 of C1 in DMSO ([4]; dissolved in DMSO, neutral red): >2.6 µg/mL
- EC50 of C1 in ETOH ([4]; dissolved in ETOH, neutral red): >4.5 µg/mL
- dose that caused a 50% inactivation (EC50) (Flu A (H5N1); Neutral red assay, after 6 days): 37 µg/mL
- dose that caused a 50% inactivation (EC50) (Flu A (H5N1); visual method, % CPE after 6 days): 6.0 µg/mL
- Increase virucidal activity of C1 in DMSO ([5]; DMSO versus ETOH): 0%
- EC50 of C1 in DMSO ([5]; dissolved in DMSO, neutral red): >1.9 µg/mL
- EC50 of C1 in ETOH ([5]; dissolved in ETOH, neutral red): >1.8 µg/mL
